In PubChem BioAssay AID1769 (NMMLSC, 2009):

What follows are compounds tested against glutathione S-transferase (Schistosoma japonicum GST tag binding GSH beads) (assay: GST–glutathione bead interaction interference profiling – biochemical, multiplex beads, flow cytometry, profiling panel (AID 1769;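 note: target is a GST and green fluorescent protein fusion captured on glutathione beads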)). Conditions: flow cytometry fluorescence.

Going from `COc1cc2[nH]c(=S)nc(NC3CCCCCC3)c2cc1OC` to `C=CCNc1nc(=S)[nH]c2cc(OC)c(OC)cc12`, the EC50 rises from 1.32 µM to 13.3 µM (10-fold).

`COc1ccc(NC(=O)c2cc3nc(-c4ccccc4)cc(C)n3n2)cc1OC` and `COc1cc2[nH]c(=S)nc(Nc3ccc(NC(C)=O)cc3)c2cc1OC` are within 1.5-fold of each other in EC50: 2.85 µM for the first, 2.91 µM for the second.

Going from `COc1cc(C(=S)NCc2ccccc2)cc(Br)c1O` to `COc1ccc(C(=O)N/N=c2\oc3ccccc3cc2C(N)=O)cc1`, the EC50 falls from 53.7 µM to 4.62 µM (12-fold).

Compared with `O=[N+]([O-])c1ccc2c(c1)c(-c1ccccc1)nc1nncn12`, `CN(C)S(=O)(=O)c1ccc(C(=O)NNc2nc(-c3ccccc3)c3cc(Br)ccc3n2)cc1` is 1.6-fold higher in EC50: 3.04 µM for the first, 4.9 µM for the second.

First: N#Cc1c(Nc2ccccc2)c(/C=N/N=C/c2ccccc2)c[nH]c1=O
Second: O=S1(=O)N=C(N(CCO)/N=C/c2ccccc2)c2ccccc21
The EC50 of the first is 13-fold lower: 4.1 µM for the first, 51.9 µM for the second.

Compared with `CC(C)(C)c1ccc(C(=O)CC(Sc2ccc(Cl)cc2)C(=O)O)cc1` (configuration not stated), `O=C(CSc1ccccc1)Nc1ccc(C(=O)Nc2cccc(O)c2)cc1` is 1.8-fold lower in EC50: 3.51 µM for the first, 1.9 µM for the second.

Compared with `COc1cccc(N=Nc2c(N)[nH]n3c(=O)c4c(nc23)CCCC4)c1`, `CCCc1nc2oc3c(=O)[nH]cnc3c2c2c1CCCC2` is 1.7-fold higher in EC50: 1.22 µM for the first, 2.05 µM for the second.

Going from `Oc1ccc(/C=N/NC(=S)N/N=C/c2ccc(O)cc2)cc1` to `O=c1[nH]c(N/N=C/c2ccc(O)cc2)nc2ccccc12`, the EC50 falls from 13.4 µM to 7.68 µM (1.7-fold). The second is the more potent here.

`Fc1cccc(Nc2ncnc3[nH]ncc23)c1` and `Cc1ccc(Nc2nc(-c3c(C)nc4ncccn34)cs2)cc1` are within 1.5-fold of each other in EC50: 45.1 µM for the first, 34.8 µM for the second.

First: COc1ccc(-c2csc(NC(=S)NC(=O)c3cccs3)n2)cc1OC
Second: COc1ccc(-c2csc(C3=C(O)CN(C(C)C)C3=N)n2)cc1OC
The EC50 of the first is 66-fold lower: 1.33 µM for the first, 87.3 µM for the second.

Compared with `Oc1c(CN2CCOCC2)ccc2ccccc12`, `O=c1c2c(-c3ccccc3)csc2nc2c3ccccc3c(NCCN3CCOCC3)nn12` is 13-fold lower in EC50: 24.5 µM for the first, 1.84 µM for the second. The second is the more potent here.

Compared with `COc1cc2c(cc1OC)-c1cc(NC3CCCCCCC3)nc(=O)n1CC2`, `COc1cc2c(cc1OC)-c1cc(NCc3ccccn3)nc(=O)n1CC2` is 10-fold lower in EC50: 20.5 µM for the first, 1.96 µM for the second.

First: O=C(COC(=O)c1ccc2c(c1[N+](=O)[O-])C(=O)c1ccccc1C2=O)NC1CC1
Second: CCC1CCCCN1S(=O)(=O)c1ccc(NC(=O)CSc2ncccc2C(=O)O)cc1 (configuration not stated)
The EC50 of the first is 2.6-fold higher: 28 µM for the first, 10.7 µM for the second. The second is the more potent here.

First: O=C1/C(=C/c2ccc(N3CCOCC3)o2)SC(=Nc2ccccc2)N1CCc1c[nH]c2ccccc12
Second: N=c1oc2ccc3ccccc3c2cc1-c1nc(-c2ccccc2)cs1
The EC50 of the first is 20-fold lower: 0.0697 µM for the first, 1.4 µM for the second. The first is the more potent here.

Compared with `Cc1c(CCC(=O)O)c(=O)oc2cc3occ(-c4ccc(F)cc4)c3cc12`, `COc1ccc(-c2cc(=O)c(C(=O)c3ccc(C)cc3)n[nH]2)cc1` is 17-fold lower in EC50: 70.5 µM for the first, 4.09 µM for the second.

Compared with `CC(C)c1cc(NCc2ccccn2)n2c(nc3ccccc32)c1C#N`, `O=c1c2ccccc2nc2c3ccccc3c(NCc3cccnc3)nn12` is 8.1-fold lower in EC50: 2.82 µM for the first, 0.348 µM for the second. The second is the more potent here.

First: NC1=NC(=O)/C(=C/c2cn(CCC(=O)O)nc2-c2ccc(Cl)cc2)S1
Second: NS(=O)(=O)c1ccc(CCN2C(=O)/C(=C\c3ccc(Cl)cc3)SC2=S)cc1
The EC50 of the first is 4.8-fold higher: 29.2 µM for the first, 6.03 µM for the second.

First: COc1ccccc1Nc1nc(-c2c(C)nc3ncccn23)cs1
Second: COc1cc(/C=N/Nc2nc(C)nc3c2cnn3-c2ccccc2)ccc1O
The EC50 of the first is 19-fold higher: 12.2 µM for the first, 0.638 µM for the second. The second is the more potent here.

Compared with `O=C(N/N=C/c1ccco1)c1ccc(C(=O)N/N=C/c2ccco2)o1`, `O=C(N/N=C/c1ccc2nccnc2c1)c1cccc([N+](=O)[O-])c1` is 2.3-fold lower in EC50: 19.4 µM for the first, 8.59 µM for the second.

Going from `CCOc1ccc(CCNc2ccc3nnc(-c4ccccc4)n3n2)cc1OCC` to `Cc1nnc2ccc(-c3cccc(NC(=O)c4ccco4)c3)nn12`, the EC50 rises from 2.29 µM to 7.84 µM (3.4-fold). The first is the more potent here.

Going from `Cn1c(O)c(C2=c3ccccc3=NC2=O)[nH]c1=S` to `COc1ccc(C(=O)Nc2nc3ccccc3[nH]2)cc1S(=O)(=O)N1CCOCC1`, the EC50 rises from 13.4 µM to 32.7 µM (2.4-fold).

`CCN1/C(=C/C=C/c2oc3ccc4ccccc4c3[n+]2CC)Oc2ccc3ccccc3c21` and `CCN(c1ccc(N=Cc2c(O)n(Cc3ccc(OC)cc3)c(=O)c3ccccc23)cc1)C(C)C` are within 1.5-fold of each other in EC50: 0.223 µM for the first, 0.249 µM for the second.

Going from `Nc1c([N+](=O)[O-])cc(-c2cnc[nH]2)cc1[N+](=O)[O-]` to `CCNC(=S)N=Nc1c(O)[nH]c2ccc([N+](=O)[O-])cc12`, the EC50 rises from 0.391 µM to 1.93 µM (4.9-fold).

Going from `CC(=O)Oc1ccc2c(c1)Oc1cc(OC(C)=O)ccc1C21OC(=O)c2ccccc21` to `CCOc1cc(/C=N/NC(=O)c2cc(-c3cccnc3)nc3ccccc23)ccc1O`, the EC50 rises from 1.51 µM to 8.65 µM (5.7-fold).

Going from `COc1ccc2o/c(=N/NC(=O)c3cccs3)c(C(N)=O)cc2c1` to `COc1cc(NC(=O)c2cccs2)c(OC)cc1NC(=O)CCC(=O)Nc1ccc2ncccc2c1`, the EC50 falls from 7.29 µM to 0.481 µM (15-fold). The second is the more potent here.

Going from `COC(=O)c1cc(NC(=O)c2cccc(Cl)c2)c(=O)oc1/C=C/Nc1cc(C)cc(C)c1` to `O=C(O)c1cc(-c2ccc(/C=C3\NC(=O)N(c4ccc(Cl)cc4)C3=O)o2)ccc1Cl`, the EC50 rises from 0.567 µM to 11.8 µM (21-fold).

Compared with `O=C(Oc1c(Br)cc(C(=S)N2CCOCC2)cc1Br)c1ccc(Cl)cc1`, `O=C(CN1CCN(c2ccc(O)cc2)CC1)Nc1cc(S(=O)(=O)N2CCCCC2)ccc1Cl` is 6.4-fold higher in EC50: 2.97 µM for the first, 19.1 µM for the second. The first is the more potent here.

Going from `CN1CCN(S(=O)(=O)c2cccc(C(=O)Nc3sc4c(c3C(N)=O)CCCC4)c2)CC1` to `COc1cc(N2CCCC2)c(OC)cc1/C=C(/C#N)c1cccc(F)c1`, the EC50 falls from 19.8 µM to 1.71 µM (12-fold). The second is the more potent here.

First: O=C1Nc2ccc(Br)cc2C12NNc1ccccc1O2 (configuration not stated)
Second: Cc1cccc(/C=N/N(CCO)C2=NS(=O)(=O)c3ccccc32)c1
The EC50 of the first is 25-fold lower: 2.38 µM for the first, 60.2 µM for the second. The first is the more potent here.

Going from `Cc1cc(-c2nnc3n2N=C(c2ccc(-c4ccccc4)cc2)CS3)n[nH]1` to `Cc1nc(N/N=C/c2ccc(O)cc2)c2cnn(-c3ccccc3)c2n1`, the EC50 falls from 6.8 µM to 3.58 µM (1.9-fold). The second is the more potent here.

Compared with `COc1ccc(/C=N/NC(=O)c2ccncc2)cc1Cn1nc([N+](=O)[O-])c(Br)c1C`, `COc1ccc(OC)c(S(=O)(=O)Nc2ccc(O)c(Sc3ncn[nH]3)c2)c1` is 2.1-fold lower in EC50: 9.22 µM for the first, 4.38 µM for the second.

Going from `O=[N+]([O-])c1ccc(/C=C/C2=NN(c3ccccc3)C(c3ccco3)C2)cc1` (configuration not stated) to `CC(C)(C)NC(=O)CCN(/N=C/c1ccc([N+](=O)[O-])o1)C1=NS(=O)(=O)c2ccccc21`, the EC50 rises from 1.34 µM to 3.39 µM (2.5-fold). The first is the more potent here.

First: COc1cc(/C=C2/SC(=Nc3ccc(O)cc3)NC2=O)cc(OC)c1O
Second: COc1cc2[nH]c(=S)nc(NCCc3ccc(C)cc3)c2cc1OC
The EC50 of the first is 2.9-fold higher: 0.974 µM for the first, 0.334 µM for the second. The second is the more potent here.

With `N#CCc1c(C#N)c(N)nc(N2CCN(C=O)CC2)c1C#N` the EC50 was 15.7 µM.
